Results from ChEMBL document CHEMBL1152855, “Regioselective synthesis of dispiro[1H-indene-2,3'-pyrrolidine-2',3''-[3H]indole]-1,2''(1''H)-diones of potential anti-tumor properties” (2009).

Assays:
[1] = system: U-251; assay: Growth inhibition of human U251 cells at 10 uM after 48 hrs by sulforhodamine B assay; type: functional; details: U-251, 48 h, values are per cent of control
[2] = system: K562; assay: Growth inhibition of human K562 cells at 10 uM after 48 hrs by sulforhodamine B assay; type: functional; details: K562, 48 h, values are per cent of control
[3] = system: SK-OV-3; assay: Growth inhibition of human SKOV3 cells at 10 uM after 48 hrs by sulforhodamine B assay; type: functional; details: SK-OV-3, 48 h, values are per cent of control
[4] = system: TK-10; assay: Growth inhibition of human TK10 cells at 10 uM after 48 hrs by sulforhodamine B assay; values are per cent of control; details: TK-10, 48 h
[5] = system: OVCAR-8; assay: Growth inhibition of human OVCAR8 cells at 10 uM after 48 hrs by sulforhodamine B assay; type: functional; details: OVCAR-8, 48 h, read-out: GI
[6] = system: OVCAR-4; assay: Growth inhibition of human OVCAR4 cells at 10 uM after 48 hrs by sulforhodamine B assay; type: functional; details: OVCAR-4, 48 h, values are per cent of control
[7] = system: Rattus norvegicus; assay: Antiinflammatory activity against carrageenan-induced paw edema in Wister albino rat assessed as inhibition of edema at 50 mg/kg, ip administered 1 hr prior to carrageenan challenge measured after 3 hrs relative to control; type: functional; details: route intraperitoneal
[8] = system: LOX IMVI; assay: Growth inhibition of human LOXIMVI cells at 10 uM after 48 hrs by sulforhodamine B assay; type: functional; details: values are per cent of control
[9] = system: SNB-19; assay: Growth inhibition of human SNB19 cells at 10 uM after 48 hrs by sulforhodamine B assay; type: functional; details: SNB-19, 48 h, values are per cent of control
[10] = system: HOP-92; assay: Growth inhibition of human HOP92 cells at 10 uM after 48 hrs by sulforhodamine B assay; type: functional; details: HOP-92, 48 h, read-out: GI
[11] = system: UACC-257; assay: Growth inhibition of human UACC257 cells at 10 uM after 48 hrs by sulforhodamine B assay; type: functional; details: UACC-257, 48 h, values are per cent of control
[12] = system: T47D; assay: Growth inhibition of human T47D cells at 10 uM after 48 hrs by sulforhodamine B assay; type: functional; details: values are per cent of control
[13] = system: EKVX; assay: Growth inhibition of human EKVX cells at 10 uM after 48 hrs by sulforhodamine B assay; type: functional; details: values are per cent of control
[14] = system: NCI/ADR-RES; assay: Growth inhibition of human NCI/ADR-RES cells at 10 uM after 48 hrs by sulforhodamine B assay; type: functional; details: values are per cent of control
[15] = system: SF-268; assay: Growth inhibition of human SF268 cells at 10 uM after 48 hrs by sulforhodamine B assay; type: functional; details: SF-268, 48 h, values are per cent of control
[16] = system: 786-0; assay: Growth inhibition of human 786-0 cells at 10 uM after 48 hrs by sulforhodamine B assay; type: functional; details: 786-0, 48 h, values are per cent of control
[17] = system: HT-29; assay: Growth inhibition of human HT-29 cells at 10 uM after 48 hrs by sulforhodamine B assay; type: functional; details: HT-29, 48 h, values are per cent of control
[18] = system: Rattus norvegicus; assay: Antiinflammatory activity against carrageenan-induced paw edema in Wister albino rat assessed as inhibition of edema at 50 mg/kg, ip administered 1 hr prior to carrageenan challenge measured after 4 hrs relative to indomethacin; type: functional; details: route intraperitoneal
[19] = system: OVCAR-3; assay: Growth inhibition of human OVCAR-3 cells at 10 uM after 48 hrs by sulforhodamine B assay; type: functional; details: OVCAR-3, 48 h, values are per cent of control
[20] = system: NCI-H23; assay: Growth inhibition of human NCI-H23 cells at 10 uM after 48 hrs by sulforhodamine B assay; type: functional; details: NCI-H23, 48 h, values are per cent of control
[21] = system: NCI-H322M; assay: Growth inhibition of human NCI-H322M cells at 10 uM after 48 hrs by sulforhodamine B assay; type: functional; details: values are per cent of control
[22] = system: Rattus norvegicus; assay: Antiinflammatory activity against carrageenan-induced paw edema in Wister albino rat assessed as inhibition of edema at 50 mg/kg, ip administered 1 hr prior to carrageenan challenge measured after 2 hrs relative to control; type: functional; details: route intraperitoneal
[23] = system: M14; assay: Growth inhibition of human M14 cells at 10 uM after 48 hrs by sulforhodamine B assay; type: functional; details: M14, 48 h, values are per cent of control
[24] = system: PC-3; assay: Growth inhibition of human PC3 cells at 10 uM after 48 hrs by sulforhodamine B assay; type: functional; details: PC-3, 48 h, values are per cent of control
[25] = system: SR; assay: Growth inhibition of human SR cells at 10 uM after 48 hrs by sulforhodamine B assay; type: functional; details: values are per cent of control
[26] = system: RPMI-8226; assay: Growth inhibition of human RPMI8226 cells at 10 uM after 48 hrs by sulforhodamine B assay; type: functional; details: RPMI-8226, 48 h, read-out: GI
[27] = system: HOP-62; assay: Growth inhibition of human HOP62 cells at 10 uM after 48 hrs by sulforhodamine B assay; type: functional; details: HOP-62, 48 h, values are per cent of control
[28] = system: SN12C; assay: Growth inhibition of human SN12C cells at 10 uM after 48 hrs by sulforhodamine B assay; type: functional; details: values are per cent of control
[29] = system: HCC 2998; assay: Growth inhibition of human HCC2998 cells at 10 uM after 48 hrs by sulforhodamine B assay; type: functional; details: HCC 2998, 48 h, values are per cent of control
[30] = system: SNB-75; assay: Growth inhibition of human SNB75 cells at 10 uM after 48 hrs by sulforhodamine B assay; type: functional; details: SNB-75, 48 h, values are per cent of control
[31] = system: NCI-H522; assay: Growth inhibition of human NCI-H522 cells at 10 uM after 48 hrs by sulforhodamine B assay; type: functional; details: NCI-H522, 48 h, values are per cent of control
[32] = system: Rattus norvegicus; assay: Antiinflammatory activity against carrageenan-induced paw edema in Wister albino rat assessed as inhibition of edema at 50 mg/kg, ip administered 1 hr prior to carrageenan challenge measured after 4 hrs relative to control; type: functional; details: route intraperitoneal
[33] = system: HCT-15; assay: Growth inhibition of human HCT15 cells at 10 uM after 48 hrs by sulforhodamine B assay; type: functional; details: HCT-15, 48 h, values are per cent of control
[34] = system: NCI-H226; assay: Growth inhibition of human NCI-H226 cells at 10 uM after 48 hrs by sulforhodamine B assay; type: functional; details: NCI-H226, 48 h, values are per cent of control
[35] = system: UACC-62; assay: Growth inhibition of human UACC62 cells at 10 uM after 48 hrs by sulforhodamine B assay; type: functional; details: UACC-62, 48 h, values are per cent of control
[36] = system: SF-539; assay: Growth inhibition of human SF539 cells at 10 uM after 48 hrs by sulforhodamine B assay; type: functional; details: SF-539, 48 h, values are per cent of control
[37] = system: MOLT-4; assay: Growth inhibition of human MOLT4 cells at 10 uM after 48 hrs by sulforhodamine B assay; type: functional; details: MOLT-4, 48 h, values are per cent of control
[38] = system: SK-MEL-5; assay: Growth inhibition of human SK-MEL-5 cells at 10 uM after 48 hrs by sulforhodamine B assay; type: functional; details: SK-MEL-5, 48 h, values are per cent of control
[39] = system: ACHN; assay: Growth inhibition of human ACHN cells at 10 uM after 48 hrs by sulforhodamine B assay; type: functional; details: values are per cent of control

Row | SMILES | growth, % of control at 10 µM [1] [%] | growth, % of control at 10 µM [2] [%] | growth, % of control at 10 µM [3] [%] | growth, % of control at 10 µM [4] [%] | inhibition of growth at 10 µM [5] [%] | growth, % of control at 10 µM [6] [%] | inhibition in vivo at 50 mg/kg [7] [%] | growth, % of control at 10 µM [8] [%] | growth, % of control at 10 µM [9] [%] | inhibition of growth at 10 µM [10] [%] | growth, % of control at 10 µM [11] [%] | growth, % of control at 10 µM [12] [%] | growth, % of control at 10 µM [13] [%] | growth, % of control at 10 µM [14] [%] | growth, % of control at 10 µM [15] [%] | growth, % of control at 10 µM [16] [%] | growth, % of control at 10 µM [17] [%] | activity relative to indomethacin [18] [%] | growth, % of control at 10 µM [19] [%] | growth, % of control at 10 µM [20] [%] | other results
1 | [3H]N1C(=O)[C@@]2(c3ccccc31)N(C)C[C@@H](c1ccc(OC)cc1)[C@@]21Cc2ccccc2C1=O | 96.7 | 93.9 | 97.3 | 176 | 55.3 | 118 | 20.5 | 80.5 | 92.2 | 62.5 | 99.3 | 97.5 | 92.4 | 89.4 | 113 | 102 | 138 | 45 | 98.5 | 89.3 | growth, % of control at 10 µM [21]: 111%; inhibition in vivo at 50 mg/kg [22]: 17.5%; growth, % of control at 10 µM [23]: 97.5%; growth, % of control at 10 µM [24]: 66%; growth, % of control at 10 µM [25]: 140%; inhibition of growth at 10 µM [26]: 66.8%; growth, % of control at 10 µM [27]: 100%; growth, % of control at 10 µM [28]: 105%; growth, % of control at 10 µM [29]: 76.7%; growth, % of control at 10 µM [30]: 102%; growth, % of control at 10 µM [31]: 91%; inhibition in vivo at 50 mg/kg [32]: 21.8%; growth, % of control at 10 µM [33]: 107%; growth, % of control at 10 µM [34]: 85.9%; growth, % of control at 10 µM [35]: 71.8%; growth, % of control at 10 µM [36]: 101%; growth, % of control at 10 µM [37]: 79.8%; growth, % of control at 10 µM [38]: 101%; growth, % of control at 10 µM [39]: 98.1%
2 | [3H]C([3H])([3H])N1C(=O)[C@@]2(c3ccccc31)N(C)C[C@@H](c1ccc(OC)cc1)[C@@]21Cc2ccccc2C1=O | 88.4 | 85.2 | 99.4 | 165 | 83.8 | 78.8 | 3.3 | 78.5 | 94.1 | 47.1 | 88.7 | 93.3 | 67.3 | 96 | 108 | 88 | 66.9 | 8 | 92.5 | 84.5 | growth, % of control at 10 µM [21]: 124%; inhibition in vivo at 50 mg/kg [22]: 20.2%; growth, % of control at 10 µM [23]: 94.1%; growth, % of control at 10 µM [24]: 58.4%; growth, % of control at 10 µM [25]: 125%; inhibition of growth at 10 µM [26]: 17.7%; growth, % of control at 10 µM [27]: 88.2%; growth, % of control at 10 µM [28]: 89.1%; growth, % of control at 10 µM [29]: 104%; growth, % of control at 10 µM [30]: 79%; growth, % of control at 10 µM [31]: 87%; inhibition in vivo at 50 mg/kg [32]: 3.8%; growth, % of control at 10 µM [33]: 89.1%; growth, % of control at 10 µM [34]: 78.7%; growth, % of control at 10 µM [35]: 63.1%; growth, % of control at 10 µM [36]: 99.9%; growth, % of control at 10 µM [37]: 107%; growth, % of control at 10 µM [38]: 88.1%; growth, % of control at 10 µM [39]: 82.8%
